pIC50, pKi: −log10 of the molar value. Like-named read-outs stand apart in the source and are kept apart here.
What was measured:
gastric H,K-ATPase [1] = target: T1, gastric H,K-ATPase (Sus scrofa, UniProt P19156); experiment: K+-stimulated, SCH28080-sensitive H,K-ATPase activity of pig gastric microsomes (32Pi release from ATP); format: biochemical; conditions: for pIC50: pig gastric microsomes, pH 7.0, 20 minutes at 37° C., read-out: half-maximal inhibitory concentration (IC50), H,K-ATPase activity; for inhibitory effect on microsomal H,K-ATPase activity: concentrations up to 10^−4 M; for effect on H,K-ATPase activity: non-physiological concentrations greater than 10^−7 M; for inhibitory activity against H,K-ATPase: physiological concentrations (10^−9-10^−8 M)
T1 construct: Reaction mixtures for assay of K^+-stimulated ATPase activity in pig gastric microsomal membranes contained 5 μg membrane protein; from tissue; host or cells: pig gastric fundic mucosa, G1 microsomal fraction
T1 sequence (P19156 2-1034 limits assumed): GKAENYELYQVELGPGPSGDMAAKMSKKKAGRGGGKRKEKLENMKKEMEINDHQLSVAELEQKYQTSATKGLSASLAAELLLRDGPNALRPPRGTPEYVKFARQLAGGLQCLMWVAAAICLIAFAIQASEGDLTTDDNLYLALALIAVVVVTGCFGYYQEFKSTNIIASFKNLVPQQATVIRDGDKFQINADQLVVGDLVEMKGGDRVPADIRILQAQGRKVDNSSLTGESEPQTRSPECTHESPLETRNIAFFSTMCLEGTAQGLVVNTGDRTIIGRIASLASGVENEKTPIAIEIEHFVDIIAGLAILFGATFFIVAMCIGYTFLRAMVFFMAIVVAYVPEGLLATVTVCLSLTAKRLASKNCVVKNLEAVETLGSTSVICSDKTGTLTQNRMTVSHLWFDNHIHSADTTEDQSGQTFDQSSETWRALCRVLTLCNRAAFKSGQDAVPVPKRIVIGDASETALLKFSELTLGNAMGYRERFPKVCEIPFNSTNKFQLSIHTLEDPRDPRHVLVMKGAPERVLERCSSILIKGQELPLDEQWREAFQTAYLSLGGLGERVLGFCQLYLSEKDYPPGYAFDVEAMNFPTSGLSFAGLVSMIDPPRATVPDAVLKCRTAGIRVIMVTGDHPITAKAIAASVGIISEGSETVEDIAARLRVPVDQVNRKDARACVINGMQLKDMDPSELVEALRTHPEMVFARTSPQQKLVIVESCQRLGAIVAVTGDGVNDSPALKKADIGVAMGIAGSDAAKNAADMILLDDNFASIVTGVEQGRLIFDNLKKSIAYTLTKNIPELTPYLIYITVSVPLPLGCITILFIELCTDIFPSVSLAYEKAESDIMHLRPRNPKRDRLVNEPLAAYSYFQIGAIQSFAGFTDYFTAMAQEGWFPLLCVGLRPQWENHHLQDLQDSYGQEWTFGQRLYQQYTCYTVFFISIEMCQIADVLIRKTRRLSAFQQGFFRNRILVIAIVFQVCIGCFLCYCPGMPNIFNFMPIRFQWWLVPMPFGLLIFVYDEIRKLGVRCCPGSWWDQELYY
T1 sequence (P18434 whole entry partner): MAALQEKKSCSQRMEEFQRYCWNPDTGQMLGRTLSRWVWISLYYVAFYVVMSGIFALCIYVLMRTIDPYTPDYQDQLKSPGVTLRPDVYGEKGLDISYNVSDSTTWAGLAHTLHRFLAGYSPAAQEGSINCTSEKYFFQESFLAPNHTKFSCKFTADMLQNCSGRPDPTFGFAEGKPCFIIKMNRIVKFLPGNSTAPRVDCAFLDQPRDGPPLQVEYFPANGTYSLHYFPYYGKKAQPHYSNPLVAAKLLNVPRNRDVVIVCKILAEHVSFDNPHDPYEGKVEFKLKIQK
Description: Strategy. Microsomal gastric H,K-ATPase was prepared from pig gastric mucosal homogenates by differential centrifugation. Briefly, pig stomachs obtained at a slaughter-house within 1 hour post mortem were washed with ice-cold 0,25 M sucrose and the fundus was dissected from the cardiac and antral regions. All subsequent prodedures were at 4° C. The mucosa was flooded with saturated NaCl, and the surface mucus and superficial cells wiped off with paper towels. The mucosa was scraped from the underlying connective tissue, suspended (10% w/v) in isolation buffer (0,25 M sucrose, 20 mM HEPES, pH 7,4, 1 mM EDTA, 1 mM phenylmethylsulfonyl fluoride), and disrupted by two 10 second bursts at maximum power in a Tissumizer (Tekmar, Cincinnati, Ohio). The homogenate was centrifuged at 20,000 g for 30 minutes, and the supernatant was centrifuged at 10^5 g for 1 hour. The resulting microsomal pellet was resuspended in isolation buffer, and applied to a discontinuous gradient of 7% w/v Ficoll and 34% sucrose (both in isolation buffer). After 3 hours at 32,500 rpm (Sorvall AH 629 rotor), the microsomal band (G1) recovered from the 7% Ficoll interface was resuspended to 10 mg/ml in 15 mM PIPES-Tris, pH 6,8, diluted 1:1 with cold 60% sucrose, lyophilized in 0,5 ml aliquots, and stored at −70° C. Gl microsomes were about 0,1 microns in diameter, were enriched in H.K.-ATPase activity, and more than 80% of their protein content banded at 94 kDa by SDS-PAGE. ATP hydrolytic activity of microsomes was quantitated in terms of inorganic phosphate release from substrate ATP and measured in graded concentrations (ranging from 10^−9M to 10^−4M) of ML 3000, and a wide range of other compounds. Reaction mixtures for assay of K^+-stimulated ATPase activity in pig gastric microsomal membranes contained 5 μg membrane protein, 100 mM Tris-acetate, pH 7.0, 1 mM MgCl2, 1 mM NaNa, 0,1 mM EGTA, 5 μM ATP (γ-^32P-ATP, 10 Ci/mmol, NEN, Boston, Mass.), 0-10 mM KCl, and 0-100 μM SCH 28080. After 20 minutes incubation at 37° C., reactions were stopped by addition of 10% w/v activated charcoal (Sigma), 5,5% w/v trichloroacetic acid, vortexed vigorously, and centrifuged at 14,000 g for 10 minutes at 4° C. Inorganic phosphate (γ-^32Pi) content of the supernatant was measured by scintillation counting. […] Graphs with standard error bars present inter-assay data variance in three independent assays in each of which ATPase activities in three separate but identical reaction conditions were measured. Graphs without standard error bars represent the mean ATPase activities in three separate but identical reaction conditions in one of at least three independent assays; typical data are shown in these cases.
The wide range of published PPI IC50 values for microsomal H,K-ATPase reflects the mechanistic necessity for compound acidification to allow formation of a thiol-reactive […] intermediate which then irreversibly derivatizes H,K-ATPase a subunit cysteine residues leading to enzyme inhibition. […] Microsomal vesicle preparations vary widely in their ion-tightness, which affects the extent to which internal pH can be lowered by H,K-ATPase turnover, and therefore the extent to which omeprazole diffusing into the vesicle can be acidified and activated. Alternatively, prior in vitro acidification of omeprazole ensures induction of its inhibitory properties, and is essential in assays carried out using ion-permeable microsomal H,K-ATPase preparations. For this reason, the omeprazole inhibitory data shown in FIG. 2 were derived using omeprazole acidified to pH 6.1 and incubated with the enzyme for 30 min at the same pH (8).
Given that PPIs are irreversible inhibitors of H,K-ATPase activity, covalently binding to the catalytic α-subunit, it was determined whether ML 3000 inhibition of H,K-ATPase was reversible or irreversible. […]

gastric H,K-ATPase [2] = conditions: cited from earlier work; for pIC50: literature (refs 6, 7), read-out: published IC50, H,K-ATPase
[3] = test system: rabbit gastric parietal cells; experiment: [14C]-aminopyrine (acid) accumulation in isolated gastric parietal cells; format: cell-based; conditions: for effect on acid accumulation by isolated rabbit parietal cells: up to concentrations of 10^−4 M; for pIC50: Oryctolagus cuniculus
Description: Strategy. Gastric parietal cells were isolated from New Zealand White Rabbits by pronase/collagenase digestion of fundic mucosa followed by enrichment of cells on discontinuous Nycodenz gradients in a manner known per se. Aminopyrine accumulation into parietal cells was assessed in 96 well filter plates with Durapore membranes. […] All determinations were performed in quadruplicate. Basal aminopyrine accumulation was determined as aminopyrine accumulation into […] (a reflection of non-specific isotope trapping).

gastric H,K-ATPase [4] = target: T1, gastric H,K-ATPase; experiment: K+-stimulated, SCH28080-sensitive H,K-ATPase activity of pig gastric microsomes (32Pi release from ATP); format: biochemical; conditions: concentrations up to 10^−3 M
[5] = test system: human gastric adenocarcinoma (AGS) cells; experiment: IL-8 secretion by AGS cells into culture medium (ELISA); format: cell-based; conditions: 6 hr
[6] = Plasma ML3000 level after immediate release dosage forms; format: in vivo; conditions: immediate release dosage form
[7] = AGS cells without IL-1β stimulation, read-out: IC50, baseline IL-8 secretion

## CCCCC[C@H](O)/C=C/[C@H]1[C@H](O)CC(=O)[C@@H]1C/C=C\CCCC(=O)O [prostaglandin E2]
Gastric H,K-ATPase [1]
  pIC50: 4.35

## COc1ccc2c(c1)c(CC(=O)O)c(C)n2C(=O)c1ccc(Cl)cc1 [indomethacin]
Gastric H,K-ATPase [1]
  inhibitory effect on microsomal H,K-ATPase activity: without inhibitory effects
Gastric H,K-ATPase [2]; previously reported (ref 10)
  pKi: 3.17

## CCCCC/C=C\C[C@@H](O)/C=C/C=C/C=C\[C@@H](O)CCCC(=O)O [LTB4, leukotriene B4]
Gastric H,K-ATPase [1]
  effect on H,K-ATPase activity: significant attentuation of H,K-ATPase activity
  inhibitory activity against H,K-ATPase: neither leukotriene showed any inhibitory activity

## COc1ccc2cc([C@H](C)C(=O)O)ccc2c1 [naproxen]
Gastric H,K-ATPase [1]
  inhibitory effect on microsomal H,K-ATPase activity: without inhibitory effects

## CC(=O)Oc1ccccc1C(=O)O [acetyl salicylic acid]
[3]
  effect on acid accumulation by isolated rabbit parietal cells: no effect
Gastric H,K-ATPase [4]
  inhibitory effect on microsomal H,K-ATPase activity: without inhibitory effects

## CCCCC/C=C\C/C=C\C/C=C\C/C=C\CCCC(=O)O [Arachidonic acid]
Gastric H,K-ATPase [1]
  pIC50: 4.52

## Cc1c(OCC(F)(F)F)ccnc1C[S+]([O-])c1nc2ccccc2[nH]1 (centres unmarked) [lansoprazole]
Gastric H,K-ATPase [2]
  pIC50: 5.68

## COC(=O)c1cc2nc([S+]([O-])Cc3ncccc3C)[nH]c2cc1C (centres unmarked) [picoprazole]
Gastric H,K-ATPase [2]
  pIC50: 5.70

## COC1(c2cc(F)cc(OCc3ccc4c(ccc(=O)n4C)c3)c2)CCOCC1 [ZD-2138]
Gastric H,K-ATPase [1]; at 10^−5 M
  inhibition at 10 µM: ~20%
[5]; [7]
  pIC50: ~6.40

## CC1(C)Cc2c(-c3ccccc3)c(-c3ccc(Cl)cc3)c(CC(=O)O)n2C1 [ML 3000, [6-(4-chlorophenyl)-2,2-dimethyl-7-phenyl-2,3-dihydro-1H-pyrrolizine-5-yl]-acetic acid]
Gastric H,K-ATPase [1]; diluted from 100 μM to 3.3 μM
  reversibility of H,K-ATPase inhibition on dilution: restored H,K-ATPase activity
Gastric H,K-ATPase [1]; half-maximal inhibitory concentration titrated to different pHs
  effect of acidification on H,K-ATPase inhibitory profile: no significant effect
Gastric H,K-ATPase [1]
  pIC50: 4.82
[3]; 100 μM histamine, read-out: IC50, histamine-stimulated acid accumulation
  pIC50: 4.40
[3]; read-out: IC50, forskolin-stimulated acid accumulation
  pIC50: ~4.35
[5]; [7]
  pIC50: 6.12
[5]; AGS cells, IL-1β (20 ng/ml), read-out: IC50, IL-1β-stimulated IL-8 secretion
  pIC50: 4.52
[6]; dose 2.5 mg/kg
  plasma ML3000 concentration maintained for 8 hours: above 100 ng/mL
[6]; dose 5 mg/kg
  plasma ML3000 concentration maintained for 8 hours: > 200 ng/mL

## CCCCC/C=C\C\C=C/C=C/C=C/[C@@H](SC[C@H](N)C(=O)NCC(=O)O)[C@@H](O)CCCC(=O)O [LTD4, leukotriene D4]
Gastric H,K-ATPase [1]
  effect on H,K-ATPase activity: significant attentuation of H,K-ATPase activity
  inhibitory activity against H,K-ATPase: neither leukotriene showed any inhibitory activity

## CS(=O)(=O)Nc1ccc([N+](=O)[O-])cc1OC1CCCCC1 [NS 398]
Gastric H,K-ATPase [1]
  inhibitory effect on microsomal H,K-ATPase activity: without inhibitory effects
[3]
  effect on acid accumulation by isolated rabbit parietal cells: no effect

From patent publication US20060040945A1, “Annellated pyrrole compounds as proton pump inhibitors for treating ulcer” (MERCKLE GMBH, priority 2002, published 2006)
